# Source: patent US20150307938A1, “METHOD TO IDENTIFY A NOVEL CLASS OF IMMUNOLOGIC ADJUVANTS” (Lancell, L.L.C., priority 2011, published 2015)
# Marks after values point to notes of the source that are not given here.
# System: full thickness skin
# Experiment: Whole genome array of skin gene expression after topical DBP (time course)
# Assay type: in vivo, C57BL/6J mice
# Experimental: Mice: C57BL/6J female mice obtained from The Jackson Laboratory were used between 8 and 12 weeks of age.
# Treatment: Mice were untreated or treated topically on the dorsal side of each ear with […] of dibutylphthalate (DBP). At the designated time points after treatment, the animals were euthanized and the ears washed with 70% isopropanol. Full thickness skin was obtained from the dorsal side of both ears and placed immediately in liquid nitrogen. The time between euthanasia and placement of both skin samples in liquid nitrogen was less than 1 minute. Each sample for RNA extraction contained two dorsal ear skin samples obtained from a single mouse both of whose ears received the same treatment.
# RNA Extraction: While in liquid nitrogen, the skin was pulverized with a motorized mortar and pestle (CryoGrinder), transferred by inversion of the mortar directly into 1.5 ml cryogenic vials (Nalgene) and stored in liquid nitrogen until RNA extraction. Total RNA from both ears was extracted by homogenization (Pro200) in TRIzol Reagent (Invitrogen) with 7.5 μg of RNase-free glycogen added to the mixture, according to the manufacturer's directions. The RNA was purified on a solid phase RNeasy MinElute Cleanup column (Qiagen) and eluted with 17 μL of RNase-free water. The samples were stored at −20° C. until use.
# Quantification of RNA: RNA yields were quantified by UV absorption using a NanoDrop NG-1000 spectrophotometer, where 1 AU 260 equals 40 μg RNA/ml. Purity was estimated by the 260 and 280 nm absorbance ratio; values between 1.7 and 2.1 were considered acceptable.
# Assessment of RNA Quality: The quality of sample RNA was assessed using a RNA 6000 LABCHIP Kit on an Agilent 2100 Bioanalyzer. The Bioanalyzer determines the integrity/purity of the RNA samples and permits the screening of total and mRNA sample degradation and ribosomal RNA contamination. An RNA 6000 ladder was also loaded on a specified well and used as a reference for data analysis and a built-in quality control measure. The quality and integrity of the RNA was determined through visual inspection of each electropherogram. In general, only samples with a RIN (RNA integrity number) of 7 or greater, as determined by the Bioanalyzer, were used for gene arrays. This quality control analysis was repeated following the labeling procedure to ensure that the probes were efficiently labeled and had the correct size before hybridization to the chips. All samples that were run on genome wide arrays were obtained as independent duplicates from two individual mice.
# Microarray Data Interpretation: Gene expression was compared between untreated and treated total RNA samples. “Transition” data, which represent the change in expression level for a given gene, are presented as a “weighted difference.” Changes in gene expression level were considered to be significant when the adjusted p values were less than […]. The “gene expression signature” arbitrarily includes only those genes that were transcribed with a weighted increase of 2.0 or greater, which was sustained over the subsequent time points tested.
# The weighted difference is a metric that takes into account both the variability between different time-points and the variability between replicates at the same time-point. The calculations are performed for each time-point transition, i.e., 30 minutes vs. 1 hour, 1 hour vs. 2 hours, etc. There are two steps to the calculation: the calculation of a modified Euclidean difference between the two time-points, and the calculation of the Euclidean difference between the replicates within each time-point. The first measure is an unweighted difference, while the final metric given in the spreadsheet “weights” this difference by taking into account the second measure.
# In a Euclidean difference calculation, each data point is considered as a vector in a multi-dimensional space, and the actual straight-line distance between the data points is calculated. […]
# [1] = First 15 min after DBP application
smiles,measurement,setting,value
"CCCCOC(=O)c1ccccc1C(=O)OCCCC [DBP, dibutylphthalate]","DBP Unique genes, number",2 hr,42
same,"DBP-Induced genes (≧2x Increased Expression), number",2 hr,112
same,"TLR-Induced among DBP-induced genes, number",2 hr,70^#
same,Acot5 Change in Gene Expression (Weighted Difference),2 hr to 4 hr Transition,2.191
same,Akr1c18 Change in Gene Expression (Weighted Difference),2 hr to 4 hr Transition,−0.08563
same,Areg Change in Gene Expression (Weighted Difference),2 hr to 4 hr Transition,3.401
same,Atp2c2 Change in Gene Expression (Weighted Difference),2 hr to 4 hr Transition,−0.002189
same,Btg2 Change in Gene Expression (Weighted Difference),2 hr to 4 hr Transition,1.009
same,Ccr4 Change in Gene Expression (Weighted Difference),2 hr to 4 hr Transition,0.03996
same,Cdh10 Change in Gene Expression (Weighted Difference),2 hr to 4 hr Transition,−0.008005
same,Cish Change in Gene Expression (Weighted Difference),2 hr to 4 hr Transition,0.7204
same,Cox17 Change in Gene Expression (Weighted Difference),2 hr to 4 hr Transition,−0.1255
same,Ctgf Change in Gene Expression (Weighted Difference),2 hr to 4 hr Transition,2.29
same,Cysltr1 Change in Gene Expression (Weighted Difference),2 hr to 4 hr Transition,−0.8049
same,Ddx21 Change in Gene Expression (Weighted Difference),2 hr to 4 hr Transition,2.413
same,Dlx4 Change in Gene Expression (Weighted Difference),2 hr to 4 hr Transition,3.05
same,Dusp14 Change in Gene Expression (Weighted Difference),2 hr to 4 hr Transition,2.291
same,Egr1 Change in Gene Expression (Weighted Difference),2 hr to 4 hr Transition,2.348
same,Egr2 Change in Gene Expression (Weighted Difference),2 hr to 4 hr Transition,0.5934
same,Fam115c Change in Gene Expression (Weighted Difference),2 hr to 4 hr Transition,2.163
same,Fbxo42 Change in Gene Expression (Weighted Difference),2 hr to 4 hr Transition,2.267
same,Fosl1 Change in Gene Expression (Weighted Difference),2 hr to 4 hr Transition,4.432
same,Frk Change in Gene Expression (Weighted Difference),2 hr to 4 hr Transition,−0.0494
same,Gart Change in Gene Expression (Weighted Difference),2 hr to 4 hr Transition,5.268
same,Gbp8 Change in Gene Expression (Weighted Difference),2 hr to 4 hr Transition,−0.04223
same,Gem Change in Gene Expression (Weighted Difference),2 hr to 4 hr Transition,1.546
same,Gimap7 Change in Gene Expression (Weighted Difference),2 hr to 4 hr Transition,0.03205
same,Has1 Change in Gene Expression (Weighted Difference),2 hr to 4 hr Transition,2.54
same,Ier3 Change in Gene Expression (Weighted Difference),2 hr to 4 hr Transition,4.521
same,Il10 Change in Gene Expression (Weighted Difference),2 hr to 4 hr Transition,2.932
same,Il10ra Change in Gene Expression (Weighted Difference),2 hr to 4 hr Transition,0.1254
same,Il20 Change in Gene Expression (Weighted Difference),2 hr to 4 hr Transition,2.876
same,Irf4 Change in Gene Expression (Weighted Difference),2 hr to 4 hr Transition,3.715
same,Jun Change in Gene Expression (Weighted Difference),2 hr to 4 hr Transition,0.9971
same,Junb Change in Gene Expression (Weighted Difference),2 hr to 4 hr Transition,0.9119
same,Kcnk1 Change in Gene Expression (Weighted Difference),2 hr to 4 hr Transition,32.8
same,LOC100046066 Change in Gene Expression (Weighted Difference),2 hr to 4 hr Transition,−0.1464
same,LOC100046410 Change in Gene Expression (Weighted Difference),2 hr to 4 hr Transition,2.134
same,Lcn5 Change in Gene Expression (Weighted Difference),2 hr to 4 hr Transition,3.183
same,Madcam1 Change in Gene Expression (Weighted Difference),2 hr to 4 hr Transition,−0.01081
same,Maml1 Change in Gene Expression (Weighted Difference),2 hr to 4 hr Transition,3.564
same,Map3k11 Change in Gene Expression (Weighted Difference),2 hr to 4 hr Transition,2.249
same,Med17 Change in Gene Expression (Weighted Difference),2 hr to 4 hr Transition,−2.259E−05
same,Mkks Change in Gene Expression (Weighted Difference),2 hr to 4 hr Transition,−0.2406
same,Mndal Change in Gene Expression (Weighted Difference),2 hr to 4 hr Transition,0.09548
same,Mtap7d1 Change in Gene Expression (Weighted Difference),2 hr to 4 hr Transition,6.99
same,Myc Change in Gene Expression (Weighted Difference),2 hr to 4 hr Transition,1.296
same,Myh3 Change in Gene Expression (Weighted Difference),2 hr to 4 hr Transition,8.012
same,Myl2 Change in Gene Expression (Weighted Difference),2 hr to 4 hr Transition,12.2
same,N6amt2 Change in Gene Expression (Weighted Difference),2 hr to 4 hr Transition,−0.02824
same,Nedd4l Change in Gene Expression (Weighted Difference),2 hr to 4 hr Transition,2.067
same,Nr4a1 Change in Gene Expression (Weighted Difference),2 hr to 4 hr Transition,4.572
same,P2ry1 Change in Gene Expression (Weighted Difference),2 hr to 4 hr Transition,−0.2494
same,Palmd Change in Gene Expression (Weighted Difference),2 hr to 4 hr Transition,2.134
same,Prf1 Change in Gene Expression (Weighted Difference),2 hr to 4 hr Transition,−0.1682
same,Prss23 Change in Gene Expression (Weighted Difference),2 hr to 4 hr Transition,6.983
same,Pxmp4 Change in Gene Expression (Weighted Difference),2 hr to 4 hr Transition,3.362
same,Rai12 Change in Gene Expression (Weighted Difference),2 hr to 4 hr Transition,6.683
same,Rassf5 Change in Gene Expression (Weighted Difference),2 hr to 4 hr Transition,2.519
same,Sik1 Change in Gene Expression (Weighted Difference),2 hr to 4 hr Transition,1.009
same,Slc25a25 Change in Gene Expression (Weighted Difference),2 hr to 4 hr Transition,2.285
same,Slc39a8 Change in Gene Expression (Weighted Difference),2 hr to 4 hr Transition,2.101
same,Tiparp Change in Gene Expression (Weighted Difference),2 hr to 4 hr Transition,2.281
same,Tmed3 Change in Gene Expression (Weighted Difference),2 hr to 4 hr Transition,−0.1013
same,Tmem51 Change in Gene Expression (Weighted Difference),2 hr to 4 hr Transition,6.104
same,Tnfaip8l1 Change in Gene Expression (Weighted Difference),2 hr to 4 hr Transition,2.28
same,Tnip1 Change in Gene Expression (Weighted Difference),2 hr to 4 hr Transition,3.267
same,Tnni1 Change in Gene Expression (Weighted Difference),2 hr to 4 hr Transition,3.47
same,Tnnt1 Change in Gene Expression (Weighted Difference),2 hr to 4 hr Transition,2.946
same,Trib1 Change in Gene Expression (Weighted Difference),2 hr to 4 hr Transition,2.432
same,Zfp36 Change in Gene Expression (Weighted Difference),2 hr to 4 hr Transition,2.638
same,Zfp326 Change in Gene Expression (Weighted Difference),2 hr to 4 hr Transition,2.164
same,% Shared (DBP-induced genes also TLR-induced),4 hr,64%
same,"DBP Unique genes, number",4 hr,13
same,"DBP-Induced genes (≧2x Increased Expression), number",4 hr,36
same,"TLR-Induced among DBP-induced genes, number",4 hr,23^#
same,Acot5 Change in Gene Expression (Weighted Difference),[1],2.251
same,Akr1c18 Change in Gene Expression (Weighted Difference),[1],3.655
same,Atp2c2 Change in Gene Expression (Weighted Difference),[1],5.815
same,Btg2 Change in Gene Expression (Weighted Difference),[1],61.87
same,Ccr4 Change in Gene Expression (Weighted Difference),[1],2.16
same,Cdh10 Change in Gene Expression (Weighted Difference),[1],2.487
same,Cish Change in Gene Expression (Weighted Difference),[1],2.011
same,Cox17 Change in Gene Expression (Weighted Difference),[1],2.318
same,Cysltr1 Change in Gene Expression (Weighted Difference),[1],7.656
same,Egr1 Change in Gene Expression (Weighted Difference),[1],3.561
same,Egr2 Change in Gene Expression (Weighted Difference),[1],2.003
same,Frk Change in Gene Expression (Weighted Difference),[1],6.498
same,Gbp8 Change in Gene Expression (Weighted Difference),[1],4.073
same,Gem Change in Gene Expression (Weighted Difference),[1],2.491
same,Gimap7 Change in Gene Expression (Weighted Difference),[1],4.789
same,Ier3 Change in Gene Expression (Weighted Difference),[1],5.581
same,Il10ra Change in Gene Expression (Weighted Difference),[1],2.325
same,Jun Change in Gene Expression (Weighted Difference),[1],6.095
same,Junb Change in Gene Expression (Weighted Difference),[1],4.5
same,LOC100046066 Change in Gene Expression (Weighted Difference),[1],2.503
same,Madcam1 Change in Gene Expression (Weighted Difference),[1],4.39
same,Med17 Change in Gene Expression (Weighted Difference),[1],3.949
same,Mkks Change in Gene Expression (Weighted Difference),[1],11.97
same,Mndal Change in Gene Expression (Weighted Difference),[1],2.311
same,Myc Change in Gene Expression (Weighted Difference),[1],24.16
same,N6amt2 Change in Gene Expression (Weighted Difference),[1],3.347
same,Nr4a1 Change in Gene Expression (Weighted Difference),[1],5.48
same,P2ry1 Change in Gene Expression (Weighted Difference),[1],2.279
same,Prf1 Change in Gene Expression (Weighted Difference),[1],7.177
same,Sik1 Change in Gene Expression (Weighted Difference),[1],3.072
same,Slc39a8 Change in Gene Expression (Weighted Difference),[1],3.193
same,Tmed3 Change in Gene Expression (Weighted Difference),[1],2.37
same,Zfp36 Change in Gene Expression (Weighted Difference),[1],4.19
same,% Shared (DBP-induced genes also TLR-induced),Total,64%
same,"DBP Unique genes, number",Total,200
same,"DBP-Induced genes (≧2x Increased Expression), number",Total,561 (33*)
same,"TLR-Induced among DBP-induced genes, number",Total,361 (340^#)
